In patent US20110151529A1, “METHODS AND PROCESSES FOR PRODUCING ORGANIC ACIDS” (THE OHIO STATE UNIVERSITY, priority 2008, published 2011):

Tests used:
[1] = test system: C. tyrobutyricum original culture (wild type); assay: Butyrate inhibition of cell growth, noncompetitive product inhibition model, original culture; format: cell-based, Clostridium tyrobutyricum
[2] = test system: P. acidipropionici adapted ACK-Tet from FBB; details: at 20 g/L propionic acid
[3] = test system: P. acidipropionici wild type; assay: Propionic acid inhibition of specific growth rate, free-cell culture, wild type; details: at 20 g/L propionic acid

| Compound | butyrate concentration beyond which the culture lost its ability to grow [1] | specific growth rate retained relative to 0 g/L of propionic acid [2] | growth rate lost [3] |
| --- | --- | --- | --- |
| CCCC(=O)O [butyric acid] | > 20 g/L | – | – |
| CCC(=O)O [propionic acid] | – | about 75% | more than 80% |
